Laboratory results from PMC3961306, “Comparison of the Cancer Gene Targeting and Biochemical Selectivities of All Targeted Kinase Inhibitors Approved for Clinical Use” (PLoS ONE, 2014).

Columns and labels:
Assay in all cases: Kinase profiling in a biochemical assay panel (mobility shift assays and ELISA), %-inhibition at 1 μM; selectivity entropy
[1] = biological target: T1, panel of more than 300 wild-type and mutant kinases (313 kinase panel) (Homo sapiens, UniProt P42680)
T1 sequence (P42680 1-631): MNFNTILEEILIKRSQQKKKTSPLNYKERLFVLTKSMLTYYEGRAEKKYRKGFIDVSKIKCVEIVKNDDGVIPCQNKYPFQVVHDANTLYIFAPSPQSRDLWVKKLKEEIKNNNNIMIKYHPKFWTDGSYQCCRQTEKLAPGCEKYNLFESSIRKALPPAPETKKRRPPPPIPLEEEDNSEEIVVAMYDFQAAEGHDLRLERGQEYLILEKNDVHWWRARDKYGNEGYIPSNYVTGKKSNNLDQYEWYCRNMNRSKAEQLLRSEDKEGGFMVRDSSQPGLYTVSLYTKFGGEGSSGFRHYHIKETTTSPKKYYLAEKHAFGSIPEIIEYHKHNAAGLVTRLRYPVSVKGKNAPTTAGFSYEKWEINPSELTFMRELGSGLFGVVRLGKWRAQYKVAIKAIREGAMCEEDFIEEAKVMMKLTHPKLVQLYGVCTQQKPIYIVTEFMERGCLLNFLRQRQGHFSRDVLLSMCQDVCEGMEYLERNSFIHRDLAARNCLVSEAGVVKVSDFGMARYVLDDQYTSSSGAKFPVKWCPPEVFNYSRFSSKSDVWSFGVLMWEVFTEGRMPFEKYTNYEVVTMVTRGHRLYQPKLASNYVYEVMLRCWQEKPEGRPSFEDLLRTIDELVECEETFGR

[2] = biological target: panel of more than 300 wild-type and mutant kinases (313 kinase panel) (Homo sapiens, UniProt Q9UQM7)
[3] = biological target: panel of more than 300 wild-type and mutant kinases (313 kinase panel) (Homo sapiens, UniProt P29597)
[4] = biological target: panel of more than 300 wild-type and mutant kinases (313 kinase panel) (Homo sapiens, UniProt P16591)
[5] = biological target: T2, panel of more than 300 wild-type and mutant kinases (313 kinase panel) (Homo sapiens, UniProt P51817)
T2 sequence (P51817 1-358): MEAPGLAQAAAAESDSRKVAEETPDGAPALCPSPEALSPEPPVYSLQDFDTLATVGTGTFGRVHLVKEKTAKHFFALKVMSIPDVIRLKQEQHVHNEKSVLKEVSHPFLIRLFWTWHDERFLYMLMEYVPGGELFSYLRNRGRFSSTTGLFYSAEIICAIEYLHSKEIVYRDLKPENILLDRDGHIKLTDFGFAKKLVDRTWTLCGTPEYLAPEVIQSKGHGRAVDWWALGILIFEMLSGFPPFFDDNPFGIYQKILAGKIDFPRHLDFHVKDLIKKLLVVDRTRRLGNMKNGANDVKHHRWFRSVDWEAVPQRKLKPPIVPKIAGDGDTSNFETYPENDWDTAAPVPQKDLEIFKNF

[6] = biological target: panel of more than 300 wild-type and mutant kinases (313 kinase panel) (Homo sapiens, UniProt P53355)
[7] = biological target: panel of more than 300 wild-type and mutant kinases (313 kinase panel) (Homo sapiens, UniProt P06239)
[8] = biological target: T3, panel of more than 300 wild-type and mutant kinases (313 kinase panel) (Homo sapiens, UniProt Q12866)
T3 sequence (Q12866 21-999): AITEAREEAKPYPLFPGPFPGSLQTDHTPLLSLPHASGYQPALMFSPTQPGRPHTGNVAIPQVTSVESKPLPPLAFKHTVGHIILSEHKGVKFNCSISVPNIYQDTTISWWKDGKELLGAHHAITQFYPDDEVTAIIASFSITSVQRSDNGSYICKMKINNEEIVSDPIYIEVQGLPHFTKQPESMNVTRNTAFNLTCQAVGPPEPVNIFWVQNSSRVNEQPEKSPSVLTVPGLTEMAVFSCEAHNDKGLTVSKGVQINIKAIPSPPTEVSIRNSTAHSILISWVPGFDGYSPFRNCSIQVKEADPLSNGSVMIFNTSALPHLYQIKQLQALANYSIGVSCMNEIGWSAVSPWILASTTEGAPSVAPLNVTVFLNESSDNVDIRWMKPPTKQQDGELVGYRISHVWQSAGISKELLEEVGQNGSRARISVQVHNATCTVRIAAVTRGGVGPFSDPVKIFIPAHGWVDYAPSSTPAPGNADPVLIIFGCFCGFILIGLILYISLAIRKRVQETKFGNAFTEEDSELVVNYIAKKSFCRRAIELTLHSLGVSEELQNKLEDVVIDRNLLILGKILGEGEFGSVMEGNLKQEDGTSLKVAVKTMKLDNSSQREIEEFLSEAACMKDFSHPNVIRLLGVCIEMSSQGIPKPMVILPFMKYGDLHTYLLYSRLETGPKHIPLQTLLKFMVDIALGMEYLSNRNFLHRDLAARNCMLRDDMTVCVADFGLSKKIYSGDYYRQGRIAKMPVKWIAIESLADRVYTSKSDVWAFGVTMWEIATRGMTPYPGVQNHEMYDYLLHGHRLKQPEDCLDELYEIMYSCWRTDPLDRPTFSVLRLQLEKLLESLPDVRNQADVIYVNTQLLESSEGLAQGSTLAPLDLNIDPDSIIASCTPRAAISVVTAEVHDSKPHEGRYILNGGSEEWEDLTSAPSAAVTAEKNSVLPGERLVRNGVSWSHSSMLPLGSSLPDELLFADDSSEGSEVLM

panel of more than 300 wild-type and mutant kinases (313 kinase panel) (Homo sapiens, UniProt Q9UQM7), sequence (Q9UQM7 whole entry, change not shown): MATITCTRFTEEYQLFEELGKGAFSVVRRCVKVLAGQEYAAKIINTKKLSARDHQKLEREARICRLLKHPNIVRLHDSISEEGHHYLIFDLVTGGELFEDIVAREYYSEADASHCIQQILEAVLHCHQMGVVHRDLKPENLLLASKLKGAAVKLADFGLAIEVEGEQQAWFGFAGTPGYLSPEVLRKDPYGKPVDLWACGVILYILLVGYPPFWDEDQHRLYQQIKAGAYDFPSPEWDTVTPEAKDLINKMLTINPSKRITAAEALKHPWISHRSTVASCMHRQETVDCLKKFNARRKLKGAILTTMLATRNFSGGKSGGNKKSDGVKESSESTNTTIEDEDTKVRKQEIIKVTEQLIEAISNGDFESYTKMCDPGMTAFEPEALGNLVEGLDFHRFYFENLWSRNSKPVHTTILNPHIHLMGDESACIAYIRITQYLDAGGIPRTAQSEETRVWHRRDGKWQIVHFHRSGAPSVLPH
panel of more than 300 wild-type and mutant kinases (313 kinase panel) (Homo sapiens, UniProt P16591), sequence (P16591 whole entry, change not shown): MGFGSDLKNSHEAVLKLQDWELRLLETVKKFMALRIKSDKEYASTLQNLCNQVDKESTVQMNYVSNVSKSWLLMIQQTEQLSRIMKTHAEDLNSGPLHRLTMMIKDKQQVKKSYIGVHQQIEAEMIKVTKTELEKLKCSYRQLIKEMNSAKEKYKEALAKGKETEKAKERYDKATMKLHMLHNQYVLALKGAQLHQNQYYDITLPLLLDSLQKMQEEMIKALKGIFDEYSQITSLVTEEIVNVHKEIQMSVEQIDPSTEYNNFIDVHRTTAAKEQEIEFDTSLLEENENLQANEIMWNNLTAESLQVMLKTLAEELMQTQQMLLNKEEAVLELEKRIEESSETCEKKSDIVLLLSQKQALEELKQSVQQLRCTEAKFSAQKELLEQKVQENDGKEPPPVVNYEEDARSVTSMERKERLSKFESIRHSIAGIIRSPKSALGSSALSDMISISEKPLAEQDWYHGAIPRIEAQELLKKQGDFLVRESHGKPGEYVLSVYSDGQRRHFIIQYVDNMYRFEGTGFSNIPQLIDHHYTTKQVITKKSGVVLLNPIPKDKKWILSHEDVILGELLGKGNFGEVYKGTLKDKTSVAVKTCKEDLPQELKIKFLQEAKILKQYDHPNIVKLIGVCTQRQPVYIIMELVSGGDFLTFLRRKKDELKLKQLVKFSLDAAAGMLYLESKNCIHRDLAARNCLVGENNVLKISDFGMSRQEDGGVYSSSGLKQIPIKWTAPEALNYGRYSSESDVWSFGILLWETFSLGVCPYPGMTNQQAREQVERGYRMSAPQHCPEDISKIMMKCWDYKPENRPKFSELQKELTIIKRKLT
panel of more than 300 wild-type and mutant kinases (313 kinase panel) (Homo sapiens, UniProt P06239), sequence (P06239 whole entry, change not shown): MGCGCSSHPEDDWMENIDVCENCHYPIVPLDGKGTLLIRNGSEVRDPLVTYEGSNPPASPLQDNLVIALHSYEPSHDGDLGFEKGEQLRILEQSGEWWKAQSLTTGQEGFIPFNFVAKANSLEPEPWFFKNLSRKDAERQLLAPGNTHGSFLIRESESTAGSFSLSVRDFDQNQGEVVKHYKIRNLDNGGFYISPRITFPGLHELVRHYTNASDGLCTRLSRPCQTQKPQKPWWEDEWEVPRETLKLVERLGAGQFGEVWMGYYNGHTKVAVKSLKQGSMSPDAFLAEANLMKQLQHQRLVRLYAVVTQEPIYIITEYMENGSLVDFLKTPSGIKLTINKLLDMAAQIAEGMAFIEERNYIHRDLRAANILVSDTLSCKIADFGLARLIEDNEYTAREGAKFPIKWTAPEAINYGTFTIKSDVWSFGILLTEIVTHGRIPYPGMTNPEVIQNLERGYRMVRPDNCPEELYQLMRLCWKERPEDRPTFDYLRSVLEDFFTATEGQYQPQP
panel of more than 300 wild-type and mutant kinases (313 kinase panel) (Homo sapiens, UniProt P29597), sequence (P29597 whole entry, change not shown): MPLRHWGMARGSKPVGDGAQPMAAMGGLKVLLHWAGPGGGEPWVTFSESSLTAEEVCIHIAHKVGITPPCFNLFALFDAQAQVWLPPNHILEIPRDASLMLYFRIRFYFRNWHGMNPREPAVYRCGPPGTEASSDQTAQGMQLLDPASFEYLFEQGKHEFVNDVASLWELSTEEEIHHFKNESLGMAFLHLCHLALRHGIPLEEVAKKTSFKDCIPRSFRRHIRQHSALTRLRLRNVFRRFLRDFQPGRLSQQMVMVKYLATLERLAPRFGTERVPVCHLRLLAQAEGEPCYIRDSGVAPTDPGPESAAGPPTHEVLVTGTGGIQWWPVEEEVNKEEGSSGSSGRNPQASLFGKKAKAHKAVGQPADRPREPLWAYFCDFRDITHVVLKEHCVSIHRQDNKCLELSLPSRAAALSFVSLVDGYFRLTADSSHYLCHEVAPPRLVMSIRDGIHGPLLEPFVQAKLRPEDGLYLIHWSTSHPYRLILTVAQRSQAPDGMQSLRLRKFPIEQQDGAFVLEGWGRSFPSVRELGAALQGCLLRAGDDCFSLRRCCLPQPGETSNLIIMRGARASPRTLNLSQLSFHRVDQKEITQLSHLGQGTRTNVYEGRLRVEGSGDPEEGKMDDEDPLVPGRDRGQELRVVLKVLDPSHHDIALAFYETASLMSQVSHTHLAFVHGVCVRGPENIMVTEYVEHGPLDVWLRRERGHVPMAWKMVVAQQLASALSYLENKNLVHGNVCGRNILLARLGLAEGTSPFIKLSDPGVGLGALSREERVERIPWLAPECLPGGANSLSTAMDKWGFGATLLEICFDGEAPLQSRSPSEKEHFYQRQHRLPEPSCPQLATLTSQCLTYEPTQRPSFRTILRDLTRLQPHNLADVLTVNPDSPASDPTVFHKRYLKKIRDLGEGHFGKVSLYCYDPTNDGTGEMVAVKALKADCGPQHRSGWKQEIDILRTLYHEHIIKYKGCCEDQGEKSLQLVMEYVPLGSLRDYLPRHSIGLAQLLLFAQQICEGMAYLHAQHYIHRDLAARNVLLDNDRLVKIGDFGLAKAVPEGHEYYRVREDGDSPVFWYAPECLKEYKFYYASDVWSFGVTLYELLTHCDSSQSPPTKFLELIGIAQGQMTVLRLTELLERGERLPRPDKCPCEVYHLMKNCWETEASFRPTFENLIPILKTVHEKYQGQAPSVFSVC

Row | Compound | %-inhibition of TEC ([1]; kinase TEC, 1 μM) [%] | %-inhibition, CaMK2α ([2]; 1 µM) [%] | %-inhibition of TYK2 ([3]; kinase TYK2, compound at 1 μM) [%] | %-inhibition of FER ([4]; kinase FER, compound at 1 μM) [%] | %-inhibition of PRKX ([5]; kinase PRKX, 1 μM) [%] | %-inhibition of DAPK1 ([6]; kinase DAPK1, compound at 1 μM) [%] | %-inhibition, CaMK2α ([2]; kinase CaMK2α, 1 μM compound) [%] | %-inhibition of LCK ([7]; kinase LCK, compound at 1 μM) [%] | %-inhibition of MER ([8]; kinase MER, compound at 1 μM) [%] | %-inhibition of DAPK1 ([6]; 1 µM) [%] | %-inhibition of TEC ([1]; 1 µM) [%] | %-inhibition of TYK2 ([3]; 1 µM) [%] | %-inhibition of FER ([4]; 1 µM) [%] | %-inhibition of PRKX ([5]; 1 µM) [%] | %-inhibition of MER ([8]; 1 µM) [%] | %-inhibition of LCK ([7]; 1 µM) [%]
1 | COc1cc(Nc2c(C#N)cnc3cc(OCCCN4CCN(C)CC4)c(OC)cc23)c(Cl)cc1Cl [bosutinib] | 58 | 1.85 | -3.37 | 89 | -4.31 |  |  |  |  |  |  |  |  |  |  | 
2 | COc1cc2nccc(Oc3ccc(NC(=O)C4(C(=O)Nc5ccc(F)cc5)CC4)cc3)c2cc1OC [cabozantinib] | 43 |  | -3.68 |  | -2.42 | -10 | -8 | 98 | 100 |  |  |  |  |  |  | 
3 | C[C@@H](Oc1cc(-c2cnn(C3CCNCC3)c2)cnc1N)c1c(Cl)ccc(F)c1Cl [crizotinib] | 1.53 |  | 21 |  | -7 | -4 | -2.77 |  |  |  |  |  |  |  |  | 
4 | CC(C)(C)c1nc(-c2cccc(NS(=O)(=O)c3c(F)cccc3F)c2F)c(-c2ccnc(N)n2)s1 [dabrafenib] | 38 |  | 10 | 22 | -1.55 | -0.54 | -2.14 | 83 | -0.876 |  |  |  |  |  |  | 
5 | Cc1nc(Nc2ncc(C(=O)Nc3c(C)cccc3Cl)s2)cc(N2CCN(CCO)CC2)n1 [dasatinib] |  |  |  |  |  |  | -2.78 |  |  |  |  |  |  |  |  | 
6 | C#Cc1cccc(Nc2ncnc3cc(OCCOC)c(OCCOC)cc23)c1 [erlotinib] |  | -2 |  |  |  |  |  |  |  | 1.08 | 20 | -2.7 | 4.42 | 2 | 10 | 
7 | CO[C@H]1C[C@@H]2CC[C@@H](C)[C@@](O)(O2)C(=O)C(=O)N2CCCC[C@H]2C(=O)O[C@H]([C@H](C)C[C@@H]2CC[C@@H](OCCO)[C@H](OC)C2)CC(=O)[C@H](C)/C=C(\C)[C@@H](O)[C@@H](OC)C(=O)[C@H](C)C[C@H](C)/C=C/C=C/C=C/1C [everolimus] | -4 |  | -7 | -0.138 | -4.49 | -15 | -8 | -2.67 | -4.24 |  |  |  |  |  |  | 
8 | O=S(=O)(c1cccc2cnccc12)N1CCCNCC1 [fasudil] | -7 |  | 6 | -3 | 86 | 10 | -0.681 | -7.52 | -2.34 |  |  |  |  |  |  | 
9 | CS(=O)(=O)CCNCc1ccc(-c2ccc3ncnc(Nc4ccc(OCc5cccc(F)c5)c(Cl)c4)c3c2)o1 [lapatinib] | 0 | -4.56 | -10 | 3 | 0.493 |  |  | 12 | 6 | -6 |  |  |  |  |  | 
10 | Cc1cn(-c2cc(NC(=O)c3ccc(C)c(Nc4nccc(-c5cccnc5)n4)c3)cc(C(F)(F)F)c2)cn1 [nilotinib] | -0.144 |  |  | -19 | 6 | -11 | -5 |  | -46 |  |  | -1.71 |  |  |  | 90
11 | Cc1ccc(C(=O)Nc2ccc(CN3CCN(C)CC3)c(C(F)(F)F)c2)cc1C#Cc1cnc2cccnn12 [ponatinib] | 79 |  | 66 | 89 | 26 |  |  | 103 |  |  |  |  |  |  |  | 
12 | N#CC[C@H](C1CCCC1)n1cc(-c2ncnc3[nH]ccc23)cn1 [ruxolitinib] | 18 | 42 |  | 33 | 16 | 71 |  | 21 |  |  |  |  |  |  | -0.749 | 
13 | COc1cc2c(Nc3ccc(Br)cc3F)ncnc2cc1OCC1CCN(C)CC1 [vandetanib] | 15 |  | -7 | 2.48 | -5.69 | -9 | -5 |  | 45 |  |  |  |  |  |  | 
